The record followed here is patent US7683097B2, “Topoisomerase inhibitors” (Propharmacon Inc., priority 2004, dated 2010).

Common to all, as to format: cell-based
The test system of test [1] is SK-MEL-2. Kind of test: Cell proliferation assay, Melanoma SK-MEL-2. The following applies: Homo sapiens, read-out: GI50 or IC50, Melanoma SK-MEL-2. On the procedure: (§1) The compounds listed in Table IV were prepared using the procedures outlined in the above Examples.
Test [2] concerns MES-SA/Dx5. Put plainly: Cell proliferation assay, Uterine MES-SA/Dx5. The following applies: Homo sapiens, read-out: GI50 or IC50, Uterine MES-SA/Dx5. Here is the method:
as §1

Test [3] concerns NCI-H460. Kind of test: Cell proliferation assay, NSC Lung Cancer NCI-H460. The following applies: Homo sapiens, read-out: GI50 or IC50, NSC Lung Cancer NCI-H460. Here is the method: (§2) The compounds listed in Table III were prepared using the procedures outlined in the above Examples.
In test [4] the test system is OVCAR-3. Put plainly: Cell proliferation assay, Ovarian Cancer OVCAR-3. The following applies: Homo sapiens, read-out: GI50 or IC50, Ovarian Cancer OVCAR-3. On the procedure: as §1
Test [5] deals with PC-3. Put plainly: Cell proliferation assay, Prostate Cancer PC-3. The following applies: Homo sapiens, read-out: GI50 or IC50, Prostate Cancer PC-3. On the procedure: as §1
The subject of test [6] is NCI-ADR. Put plainly: Cell proliferation assay, Breast Cancer NCI-ADR. The following applies: Homo sapiens, NCI/ADR-RES; read-out: GI50 or IC50, Breast Cancer NCI-ADR. Here is the method: as §1
The subject of test [7] is H69-AR (MDR). Put plainly: Cell proliferation assay, SC Lung Cancer H69-AR (MDR). The following applies: Homo sapiens, H69AR; read-out: GI50 or IC50, SC Lung Cancer H69-AR (MDR). Here is the method: as §2
For test [8], the system named is HCT-15. Kind of test: Cell proliferation assay, Colon Cancer HCT-15. The following applies: Homo sapiens, read-out: GI50 or IC50, Colon Cancer HCT-15. Here is the method: as §2
For test [9], the system named is HL-60. Put plainly: Cell proliferation assay, Leukemia HL-60. The following applies: Homo sapiens, read-out: GI50 or IC50, Leukemia HL-60. Here is the method:
as §2

In test [10] the test system is UO-31. Put plainly: Cell proliferation assay, Renal Cancer UO-31. The following applies: Homo sapiens, read-out: GI50 or IC50, Renal Cancer UO-31. On the procedure:
as §1

Test [11] concerns HL60-MX1 (MDR). Kind of test: Cell proliferation assay, Leukemia HL60-MX1 (MDR). The following applies: read-out: GI50 or IC50, Leukemia HL60-MX1 (MDR). Here is the method: as §2
The subject of test [12] is SF-268. Kind of test: Cell proliferation assay, CNS Cancer SF-268. The following applies: Homo sapiens, read-out: GI50 or IC50, CNS Cancer SF-268. Here is the method: as §2
The test system of test [13] is MCF-7. Kind of test: Cell proliferation assay (panel), Breast Cancer MCF-7. The following applies: Homo sapiens, MCF7; read-out: GI50 or IC50, Breast Cancer MCF-7. Here is the method:
as §1

SMILES strings stand for the structures.

Regarding `COc1ccc(NC(=O)c2ccc(Cl)c(-c3ccc(-c4ccccc4)cc3)c2)cn1` [Compound 8, 6-Chloro-[1,1′;4′,1″]terphenyl-3-carboxylic acid (6-methoxy-pyridin-3-yl)-amide], the IC50 in [1] was 1000 to 25000 nM; in [2] it was at most 1000 nM; in test [3], at most 1000 nM; in test [4] it was at most 1000 nM; in test [5], at most 1000 nM; in test [6] it was at most 1000 nM. For the same compound, the IC50 in [7] was at most 1000 nM; in test [8], at most 1000 nM; in test [9] it was at most 1000 nM; in [10], 1000 to 25000 nM; in test [11] it was 1000 to 25000 nM; in test [12], at most 1000 nM. Further, the IC50 in test [13] is above 25000 nM.

Regarding `O=C(NCC1CCCO1)c1ccc(Cl)c(-c2ccc(-c3ccccc3)cc2)c1` (centres unmarked) [Compound 58, 6-Chloro-[1,1′;4′,1″]terphenyl-3-carboxylic acid (tetrahydro-furan-2-ylmethyl)-amide], the IC50 is 1000 to 25000 nM in [1]; at most 1000 nM in test [2]; 1000 to 25000 nM in test [3]; 1000 to 25000 nM in test [4]; 1000 to 25000 nM in test [5]; at most 1000 nM in test [6]. The IC50 in test [7] was at most 1000 nM; in [8], 1000 to 25000 nM; in test [9], 1000 to 25000 nM; in [10], 1000 to 25000 nM; in test [11], 1000 to 25000 nM; in test [12] it was 1000 to 25000 nM. In addition, the IC50 in test [13] was in the range of 1000 to 25000 nM.

Regarding `O=C(Nc1ccc(N2CCNCC2)nc1)c1ccc(Cl)c(-c2ccc(-c3ccccc3)cc2)c1` [Compound 36, 6″-Chloro-[1,1′;4′,1″]terphenyl-3″-carboxylic acid (6-piperazin-1-yl-pyridin-3-yl)-amide], the IC50 in [2], in test [3], in [6] and in test [13] was at most 1000 nM in each case.

Take `O=C(Nc1ccncn1)c1ccc(Cl)c(-c2ccc(-c3ccccc3)cc2)c1` [Compound 37, 6-Chloro-[1,1′;4′,1″]terphenyl-3-carboxylic acid pyrimidin-4-ylamide]: the IC50 is above 25000 nM in [1]; at most 1000 nM in test [2]; 1000 to 25000 nM in test [3]; above 25000 nM in [4]; 1000 to 25000 nM in test [5]; at most 1000 nM in [6]. Further, the IC50 was at most 1000 nM in [7]; 1000 to 25000 nM in [8]; 1000 to 25000 nM in [9]; 1000 to 25000 nM in test [10]; at most 1000 nM in test [11]; 1000 to 25000 nM in test [12]. For the same compound, the IC50 in test [13] lay within 1000 to 25000 nM.

`O=C(NC1=NCCS1)c1ccc(Cl)c(-c2ccc(-c3ccccc3)cc2)c1` [Compound 33, 6″-Chloro-[1,1′;4′,1″]terphenyl-3″-carboxylic acid (4,5-dihydro-thiazol-2-yl)-amide]: the IC50 in [1] was 1000 to 25000 nM; in test [3], 1000 to 25000 nM; in test [4], 1000 to 25000 nM; in test [5] it was 1000 to 25000 nM; in [8] it was above 25000 nM; in test [9] it was 1000 to 25000 nM. Besides, the IC50 in test [10], in test [12] and in test [13] was 1000 to 25000 nM throughout.

Take `COc1ccc(NC(=O)c2ccc(Cl)c(-c3ccc(-c4ccccc4)c(F)c3)c2)cn1` [Compound 6, 6″-Chloro-2′-fluoro-[1,1′;4′,1″]terphenyl-3″-carboxylic acid (6-methoxy-pyridin-3-yl)-amide]: the IC50 in test [1] is 1000 to 25000 nM; in test [2], at most 1000 nM; in test [3], at most 1000 nM; in test [4], at most 1000 nM; in test [5], at most 1000 nM; in test [6] it was at most 1000 nM. The IC50 in [7] is at most 1000 nM; in [8], at most 1000 nM; in [10] it was 1000 to 25000 nM; in test [11], at most 1000 nM; in test [12], 1000 to 25000 nM; in [13], at most 1000 nM.

As for `COc1ccc(NC(=O)c2ccc(C)c(-c3ccc(-c4ccccn4)cc3)c2)cn1` [Compound 40, 6-Methyl-4′-pyridin-2-yl-biphenyl-3-carboxylic acid (6-methoxy-pyridin-3-yl)-amide], the IC50 in test [1] is above 25000 nM; in test [2] it was at most 1000 nM; in test [3], at most 1000 nM; in [4], at most 1000 nM; in [5] it was at most 1000 nM; in [7], at most 1000 nM. The IC50 in test [8], in [11], in test [12] and in test [13] was at most 1000 nM each time.

On to `O=C(NCC(c1cccnc1)N1CCCC1)c1ccc(Cl)c(-c2ccc(-c3ccccc3)cc2)c1` (centres unmarked) [Compound 32, 6-Chloro-[1,1′;4′,1″]terphenyl-3-carboxylic acid (2-pyridin-3-yl-2-pyrrolidin-1-yl-ethyl)-amide], for which the IC50 in [2] is at most 1000 nM; in test [6], 1000 to 25000 nM; in test [7], at most 1000 nM; in test [11] it was 1000 to 25000 nM; in test [12], 1000 to 25000 nM; in test [13], at most 1000 nM.

Regarding `COc1ccc(NC(=O)c2ccc(Cl)c(-c3ccc(-c4ccccc4)cc3)c2)cc1` [Compound 303, 6″-Chloro-[1,1′;4′,1″]terphenyl-3″-carboxylic acid (4-methoxy-phenyl)-amide], the IC50 in [1] was above 25000 nM; in test [3], at most 1000 nM; in test [4] it was at most 1000 nM; in [5] it was at most 1000 nM; in [8] it was at most 1000 nM; in test [10], 1000 to 25000 nM. Moreover, the IC50 in test [12] and in test [13] was at most 1000 nM throughout.

In the case of `O=C(NCCN1CCCC1)c1ccc(Cl)c(-c2ccc(-c3ccccc3)cc2)c1` [Compound 26, 6-Chloro-[1,1′;4′,1″]terphenyl-3-carboxylic acid (2-pyrrolidin-1-yl-ethyl)-amide], the IC50 in test [1], in [3], in test [4], in [5], in test [8] and in test [10] was 1000 to 25000 nM in each case. In addition, the IC50 in test [12] and in test [13] was 1000 to 25000 nM each time.

Turning to `O=C(Nc1cnccn1)c1ccc(Cl)c(-c2ccc(-c3ccccc3)cc2)c1` [Compound 5, 6″-Chloro-[1,1′;4′,1″]terphenyl-3″-carboxylic acid pyrazin-2-ylamide], the IC50 in test [1] is 1000 to 25000 nM; in test [2] it was at most 1000 nM; in test [3] it was at most 1000 nM; in [4] it was at most 1000 nM; in [5], at most 1000 nM; in test [7], at most 1000 nM. Moreover, the IC50 in test [8], in [9], in test [10], in test [11], in test [12] and in test [13] was at most 1000 nM throughout.

As for `COc1ccc(NC(=O)c2ccc(Cl)c(-c3ccc(-c4ccncc4)cc3)c2)cn1` [Compound 17, 6-Chloro-4′-pyridin-4-yl-biphenyl-3-carboxylic acid (6-methoxy-pyridin-3-yl)-amide], the IC50 in test [1], in test [2], in test [3], in test [4], in test [5] and in test [6] was at most 1000 nM each time. For the same compound, the IC50 in test [8], in test [10], in [11], in test [12] and in test [13] was at most 1000 nM each time.
